The text below walks through data of US11065230B2, “Methods and pharmaceutical compositions for the treatment of systemic mastocytosis” (INSERM (INSTITUT NATIONAL DE LA SANTE ET DE LA RECHERCHE …, priority 2016, dated 2021).

Data set [1] concerns normal hematopoietic stem and progenitor cells. To be noted: cited from earlier work.
In data set [2] the test system is ROSA WT MC line (SCF-dependent, without KIT mutation). As to the kind of experiment: Cell death and proliferation in ROSA WT mast cell line. In kind it is cell-based, human. To be noted: KPT at 100 nM, 1000 nM vs DMSO; for cell proliferation (counting after trypan blue staining): 24, 48 and 72 hours; for cell death (percentage of annexin positive cells): 72 hours, SCF 100 ng/mL. The method, then:
(§1) FIG. 1. […] Upper panel: Cell death data are presented in histograms as mean percentage of annexin positive cells ±SD after 72 hours of treatment with KPT at 100 nM, 1000 nM or with DMSO (control) in ROSA WT and ROSA D816V MC lines, n=6 independent experiments. P values are determined by ANOVA Tukeys multiple comparison test. Lower panel: Proliferation curves analysis ±SD of ROSA WT and ROSA D816V MC lines assessed by counting after blue trypan staining at 24, 48 and 72 hours of treatment with KPT at 100 nM, 1000 nM, or with DMSO (control), n=3 independent experiments. P values are determined by one-way ANOVA test, *P<0.05, ***P<0,001, ****P<0,0001, ns=not significant.
(§2) Here we show the effect of KPT-251 treatment on two different human mast cell (MC) lines : ROSA and HMC1 cell lines and on bone marrow cells depleted with erythrocytes, from a patient with aggressive mastocytosis with D816V mutation. ROSA cell lines include a SCF-dependent MC line without KIT mutation (ROSA WT) and a factor-independent MC line with KIT mutation D816V (ROSA D816V). HMC1 factor-independent MC lines include HMC1.1 with G560V KIT mutation and HMC1.2 with G560V and D816V KIT mutation.
(§3) Human MC lines ROSA WT and ROSA D816V were treated for 72 hours with KPT-251 at 100 nM, 1000 nM, or with DMSO (control) and HMC1.1 and HMC1.2 were treated for 72 hours with KPT-251 at 100 nM, 500 nM, 1000 nM, or with DMSO (control). WT ROSA cell lines were cultured in the presence of human SCF at 100 ng/mL. Cells were plated at 0,5 million/mL at day 0. Cell death percentage was assessed by counting after trypan blue staining or Annexin V labelling analysed by flow cytometry. Proliferation was assessed by counting after trypan blue staining. Bone marrow cells from patient were depleted with erythrocytes and then treated for 7 days with KPT at 100 nm, 500 nM, 1000 nm, or with DMSO (control) in culture media supplemented with SCF at 80 ng/mL and IL6 at 50 ng/mL.

In data set [3] the test system is HMC1.2 MC line (G560V and D816V KIT mutation). The data set can be described thus: Cell death and proliferation in HMC1.2 mast cell line. The class given is cell-based, human. To be noted: KPT at 100 nM, 500 nM, 1000 nM vs DMSO; for cell proliferation (counting after trypan blue staining): 24, 48 and 72 hours; for cell death (percentage of dead cells, trypan blue staining): 72 hours. The method, then:
(§4) FIG. 2. […] Upper panel: Cell death data are presented in histograms as mean percentage of dead cells ±SD assessed by counting after blue trypan staining after 72 hours of treatment with KPT at 100 nM, 500 nM, 1000 nM or DMSO (control) in HMC1.1 and HMC1.2 MC lines, n=3 independent experiments. P values are determined by ANOVA Tukeys multiple comparison test. Lower panel: Proliferation curves analysis ±SD of HMC1.1 and HMC1.2 MC lines assessed by blue trypan staining at 24, 48 and 72 hours of treatment with KPT100 nM, 500 nM, KPT1000 nM, or DMSO (control), n=3 independent experiments. P values are determined by one-way ANOVA test, *P<0.05, **P<0,01, ns=not significant. Here we show the effect of KPT-251 treatment on two different human mast cell (MC) lines : ROSA and HMC1 cell lines and on bone marrow cells depleted with erythrocytes, from a patient with aggressive mastocytosis with D816V mutation. ROSA cell lines include a SCF-dependent MC line without KIT mutation (ROSA WT) and a factor-independent MC line with KIT mutation D816V (ROSA D816V). HMC1 factor-independent MC lines include HMC1.1 with […] KIT mutation and HMC1.2 with […] and D816V KIT mutation. […] Human MC lines ROSA WT and ROSA D816V were treated for 72 hours with KPT-251 at 100 nM, 1000 nM, or with DMSO (control) and HMC1.1 and HMC1.2 were treated for 72 hours with KPT-251 at 100 nM, 500 nM, 1000 nM, or with DMSO (control). WT ROSA cell lines were cultured in the presence of human SCF at 100 ng/mL. Cells were plated at 0,5 million/mL at day 0. Cell death percentage was assessed by counting after trypan blue staining or Annexin V labelling analysed by flow cytometry. Proliferation was assessed by counting after trypan blue staining. Bone marrow cells from patient were depleted with erythrocytes and then treated for 7 days with KPT at 100 nm, 500 nM, 1000 nm, or with DMSO (control) in culture media supplemented with SCF at 80 ng/mL and IL6 at 50 ng/mL.

Data set [4] deals with ROSA D816V MC line (KIT mutation D816V). The data set can be described thus: Cell death and proliferation in ROSA D816V mast cell line. The class given is cell-based, human. To be noted: KPT at 100 nM, 1000 nM vs DMSO; for cell proliferation (counting after trypan blue staining): 24, 48 and 72 hours; for cell death (percentage of annexin positive cells): 72 hours. The protocol:
as §1, §2, §3

The test system of data set [5] is non-cancerous hematopoietic cells. To be noted: both in vitro and in vivo; cited from earlier work.
Data set [6] concerns HMC1.1 MC line (G560V KIT mutation). As to the kind of experiment: Cell death and proliferation in HMC1.1 mast cell line. In kind it is cell-based, human. To be noted: KPT at 100 nM, 500 nM, 1000 nM vs DMSO; for cell proliferation (counting after trypan blue staining): 24, 48 and 72 hours; for cell death (percentage of dead cells, trypan blue staining): 72 hours. The method, then:
as §4

The subject of data set [7] is bone marrow cells from a patient with aggressive mastocytosis with D816V mutation. As to the kind of experiment: Cell death, proliferation and histamine secretion in patient bone marrow cells. In kind it is cell-based, human. To be noted: 7 days, KPT at 100 nM, 500 nM, 1000 nM vs DMSO. The protocol:
FIG. 3. […] Upper panel: Cell death data presented as percentage of dead cells, and proliferation data, are presented in histograms. Cell death and proliferation were assessed by counting after blue trypan staining, after 7 days of treatment with KPT at 100 nM, 500 nM, 1000 nM or DMSO (control), n=1. Lower panel Histamin concentration in ng/mL was quantified in cell culture media of bone marrow cells from the patient, after 7 days of treatment with KPT at 100 nM, 500 nM, 1000 nM or DMSO (control), n=1
as §2, §3

Data set [8] relates to patients with relapsed or refractory AML. To be noted: alone or in combination with conventional therapies; cited from earlier work.
The conditions of data set [9]: compared to first generation KPT; cited from earlier work.
In data set [10] the test system is AML blasts and leukemia-initiating cells. To be noted: cited from earlier work.

For `FC(F)(F)c1cc(-c2ncn(/C=C\c3nnco3)n2)cc(C(F)(F)F)c1` [KPT-251, (Z)-2-(2-(3-(3,5-bis(trifluoromethyl)phenyl)-1H-1,2,4-triazol-1-yl)vinyl)-1,3,4-oxadiazol], in [1], the “effect on normal hematopoietic stem and progenitor cells” value is “no significant effect”. The “cell proliferation (counting after trypan blue staining)” value in data set [2] was “decreases proliferation”; in data set [2] (listed as KPT 251), “decrease in cell proliferation”; in data set [3], “decreases proliferation”; in data set [3] (listed as KPT 251), “significatively decreases proliferation in a dose dependent manner, more importantly in HMC1.2 cell line”; in [4], “decreases proliferation”; in data set [4] (listed as KPT 251), “decrease in cell proliferation”. Moreover, the “cell proliferation (counting after trypan blue staining)” value in data set [6] is given as “decreases proliferation”; in [6] (listed as KPT 251), “significatively decreases proliferation in a dose dependent manner”; in data set [7] (n=1) it was “decreases proliferation”; in data set [7] (n=1, listed as KPT), “decrease in proliferation”. The “cell death (percentage of annexin positive cells)” value in [2] is given as “induces cell death”; in data set [2] (listed as KPT 251), “significant dose dependent increase in cell death”; in data set [4], “induces cell death”; in [4] (listed as KPT 251), “significant dose dependent increase in cell death”. In addition, the “cell death (percentage of dead cells, trypan blue staining)” value in data set [3] is listed as “no effect on cell death”; in [3] (listed as KPT 251), “weak effect on cell death”; in data set [6], “no effect on cell death”; in data set [6] (listed as KPT 251) it was “weak effect on cell death”; in data set [7] (n=1), “induces cell death”; in data set [7] (n=1, listed as KPT), “increase in cell death”. In addition, the “toxicity in non-cancerous hematopoietic cells” value in [5] is “minimal toxicity”. Besides, the “histamine concentration in cell culture media” value in [7] (n=1) is on record as “decreases the secretion of histamin in culture media”; in [7] (n=1, listed as KPT), “decrease in media concentration of histamine”.
Take `O=C(/C=C\n1cnc(-c2cc(C(F)(F)F)cc(C(F)(F)F)c2)n1)NNc1cnccn1` [KPT-330]: the induction of remission entry in data set [8] is on record as “active in inducing remission”.
With `NC(=O)/C(=C/n1cnc(-c2cc(C(F)(F)F)cc(C(F)(F)F)c2)n1)c1cncnc1` [KPT-8602], in [9], the brain penetration entry is “reduced brain penetration” and the tolerance result is on record as “better tolerance”. Besides, in data set [10], the “activity against AML blasts and leukemia-initiating cells” value is “effective activity”.
